Data reported in patent publication US11040036B2, “Pyruvate kinase activators for use in treating blood disorders” (Agios Pharmaceuticals, Inc., priority 2017, dated 2021).

Legend:
wild type PKR [1] = target: T1, wild type PKR (Homo sapiens, UniProt P30613); experiment: PKR mutant assay (AC50), wild type PKR; assay type: biochemical; conditions: wild type PKR enzyme; read-out: PKR WT AC50
Description: (§1) Example 11. PKR Mutant Assay
(§2) PKR or PKR mutant enzyme solution was diluted into a reaction mix, which contains 1× buffer (100 mM KCl, 50 mM Tris pH 7.5, 5 mM MgCl2) as well as PEP (cont depends on enzyme), 180 μM NADH, 0.5 units LDH, 1 mM DTT, 0.03% BSA; final assay concentrations after 1.11 fold dilution are indicated.
(§3) 2 μL of test compound was added into wells first, and then 180 μL reaction mix was added.
(§4) Reactions mixture with test compound was assembled except for ADP, and plates were stored for 60 minutes at room temperature.
(§5) 20 uL ADP was added to start reaction at room temperature and reaction progress was measured as changes in absorbance at 340 nm wavelength at room temperature.
(§6) Test Compound Preparation:
(§7) Test compound stock was made at 100× concentration in 100% DMSO (10 mM)
(§8) 1 to 3 dilutions were made for 11 points (i.e. 50 μl of first concentration added to 100 μl 100% DMSO to yield 3.33 mM, 50 μl of this added to 100 μl DMSO to yield 1.11 mM, and so forth) • 1 to 100 dilution into assay (2 μl in 200 μl) yielded starting concentration of 100 μM, decreasing 3 fold for 11 points.
(§9) Assay Buffer: 100 mM KCl, 50 mM Tris 7.5, 5 mM MgCl2, 1 ruM DTT, 0.03% BSA
(§10) Reaction Mixture: PKR mutant enzyme: 40-400 ng/well; ADP: 0.2-1.65 mM; PEP: 0.1-0.5 mM; NADH:180 μM; LDH: 0.5 units (Sigma #59023); DTT: 1 mM; BSA: 0.03%.

PKR K410E = PKR K410E (Homo sapiens, UniProt P30613, K410E); experiment: PKR mutant assay (AC50), PKR K410E; assay type: biochemical; conditions: PKR K410E mutant enzyme
Description: as §1, §2, §3, §4, §5, §6, §7, §8, §9, §10

PKR R510Q = PKR R510Q (Homo sapiens, UniProt P30613, R510Q); experiment: PKR mutant assay (AC50), PKR R510Q; assay type: biochemical; conditions: PKR R510Q mutant enzyme; read-out: PK R510Q AC50
Description: as §1, §2, §3, §4, §5, §6, §7, §8, §9, §10

wild type PKR [2] = target: T1, wild type PKR; experiment: Cell based ATP assay in purified red blood cells; set-up: endogenous in cells; host or cells: purified red blood cells from blood of healthy volunteers; conditions: RBCs, overnight at 37° C., ATP levels by Cell-Titer-Glo
Description: Example 16. Red Blood Cell (RBC) Purification
Fresh blood drawn from healthy volunteers into K2EDTA tubes was collected. Whole blood was pelleted by spinning at 500 g for 10 minutes. Cut transfusion bag port off of Purecell leukocyte reduction neofilter (Fisher NCO267633) one (1) inch above filter. Attach a 10 ml syringe barrel to the remaining cut tubing attached to neofilter. The plasma layer was removed from the pellet of the whole blood and the pellet was resuspended in 2× volume of phosphate buffered saline (PBS). Transfer 9 ml re-suspended blood cell pellet to prepared 10 ml syringe that is attached to the neofilter. Allow whole blood to gravity flow through filter until all fluid runs through upper tubing into filter disc. Add plunger to the syringe, remove syringe from clamp and invert the filter, then plunge air through the syringe filter system. Using a new 5 ml syringe, remove filtered RBCs from the bag by the syringe port and transfer purified RBCs to a 5 ml snap cap tube that has been incubated on ice. Spin 5 ml snap cap tube at 500 g for 10 minutes at 15 C, aspirate supernatant and resuspend in AGAM (1×PBS, 1% glucose, 170 mg/L adenine, 5.25 g/L mannitol) at a density of 4×10^9 cells/mL.
Example 17. Cell Based ATP Assay
For cell based ATP assays, the compound as described herein was prepared in 100% DMSO as a 10 mM stock. Serial dilutions (1:4) were performed in 96-well V-bottom storage plate and then added 1:100 to 96-well V-bottom plates containing AGAM. RBCs were diluted in AGAM media to a density of 1×10^7 cells/mL before added 90 μL/well to black clear bottom assay plates (final compound concentration at 0.1% DMSO concentration). Assay plates were sealed using aluminum foil seals and incubated overnight at 37° C. in a humidified chamber. ATP levels were read out using Cell-Titer-Glo (Promega).

T1 sequence (P30613 whole entry): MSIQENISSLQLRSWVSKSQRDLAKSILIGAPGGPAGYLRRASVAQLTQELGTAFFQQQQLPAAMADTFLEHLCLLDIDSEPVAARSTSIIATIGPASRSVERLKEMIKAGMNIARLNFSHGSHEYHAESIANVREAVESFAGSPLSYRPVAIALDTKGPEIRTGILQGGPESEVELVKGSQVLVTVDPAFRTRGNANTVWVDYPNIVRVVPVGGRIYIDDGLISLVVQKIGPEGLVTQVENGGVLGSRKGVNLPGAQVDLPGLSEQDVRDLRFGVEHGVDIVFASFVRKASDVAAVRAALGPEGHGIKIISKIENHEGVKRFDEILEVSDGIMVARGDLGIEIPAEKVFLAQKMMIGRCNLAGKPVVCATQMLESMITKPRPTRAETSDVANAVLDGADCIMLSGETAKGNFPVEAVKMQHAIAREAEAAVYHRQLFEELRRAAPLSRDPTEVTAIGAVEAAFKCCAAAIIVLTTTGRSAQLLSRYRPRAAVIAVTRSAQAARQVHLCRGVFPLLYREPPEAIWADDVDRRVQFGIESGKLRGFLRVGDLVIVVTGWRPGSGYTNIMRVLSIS
Chain of PKR R510Q (P30613 whole entry R510Q): as the sequence (P30613 whole entry) above, with R510Q counted along it
Chain of PKR K410E (P30613 whole entry K410E): as the sequence (P30613 whole entry) above, with K410E counted along it

SMILES | AC50 (wild type PKR [1]) [nM] | AC50 (PKR K410E) [nM] | AC50 (PKR R510Q) [nM] | AC50 (wild type PKR [2]) [nM]
Cn1ccc(Cn2ncc3c4sc(Cc5cc[nH]n5)nc4n(C)c3c2=O)n1 | < 300 | < 300 | < 300 | ≤ 1000
Cn1c2nc(Cc3cc[nH]n3)sc2c2cnn(Cc3cscn3)c(=O)c21 | < 300 | < 300 | < 300 | ≤ 1000
Cn1c2nc(Cc3cc[nH]n3)sc2c2cnn(Cc3cnsc3)c(=O)c21 | < 300 | < 300 | < 300 | ≤ 1000
Cn1cc(C#N)c(Cn2ncc3c4sc(Cc5cc[nH]n5)nc4n(C)c3c2=O)n1 | < 300 | < 300 | < 300 | ≤ 1000
Cn1cc(C(N)=O)c(Cn2ncc3c4sc(Cc5cc[nH]n5)nc4n(C)c3c2=O)n1 | > 800 | 301 to 800 | > 800 | > 1000
Cn1cc(C(F)(F)F)c(Cn2ncc3c4sc(Cc5cc[nH]n5)nc4n(C)c3c2=O)n1 | < 300 | < 300 | < 300 | ≤ 1000
COc1cn(C)nc1Cn1ncc2c3sc(Cc4cc[nH]n4)nc3n(C)c2c1=O | < 300 | < 300 | < 300 | ≤ 1000
Cc1c[nH]nc1Cn1ncc2c3sc(Cc4n[nH]cc4F)nc3n(C)c2c1=O | < 300 | < 300 | < 300 | ≤ 1000
Cn1c2nc(Cc3n[nH]cc3F)sc2c2cnn(Cc3n[nH]cc3N)c(=O)c21 | < 300 | < 300 | < 300 | ≤ 1000
Cn1cc(CO)c(Cn2ncc3c4sc(Cc5cc[nH]n5)nc4n(C)c3c2=O)n1 | < 300 | < 300 | < 300 | ≤ 1000
Cn1c2nc(Cc3cc[nH]n3)sc2c2cnn(Cc3ncoc3C(N)=O)c(=O)c21 | < 300 | < 300 | < 300 | ≤ 1000
Cn1c2nc(Cc3cc[nH]n3)sc2c2cnn(Cc3ccc(C#N)cn3)c(=O)c21 | 301 to 800 | < 300 | < 300 | ≤ 1000
Cn1c2nc(Cc3cc[nH]n3)sc2c2cnn(Cc3ccc(C(N)=O)cn3)c(=O)c21 | 301 to 800 | < 300 | > 800 | ≤ 1000
Cn1c2nc(Cc3cc[nH]n3)sc2c2cnn(Cc3cccc(C#N)n3)c(=O)c21 | < 300 | < 300 | < 300 | ≤ 1000
Cn1c2nc(Cc3cc[nH]n3)sc2c2cnn(Cc3ncc(N)s3)c(=O)c21 | < 300 | < 300 | < 300 | ≤ 1000
Cn1c2nc(Cc3n[nH]cc3F)sc2c2cnn(Cc3nc(N)ccc3F)c(=O)c21 | < 300 | < 300 | < 300 | ≤ 1000
COc1c[nH]nc1Cn1ncc2c3sc(Cc4n[nH]cc4F)nc3n(C)c2c1=O | < 300 | < 300 | < 300 | ≤ 1000
Cc1scnc1Cn1ncc2c3sc(Cc4n[nH]cc4F)nc3n(C)c2c1=O | < 300 | < 300 | < 300 | ≤ 1000
Cn1c2nc(Cc3cc[nH]n3)sc2c2cnn(Cc3nc(C#N)cs3)c(=O)c21 | < 300 | < 300 | < 300 | ≤ 1000
Cn1c2nc(Cc3cc[nH]n3)sc2c2cnn(Cc3nc(C(N)=O)cs3)c(=O)c21 | < 300 | < 300 | < 300 | ≤ 1000
Cn1c2nc(Cc3cc[nH]n3)sc2c2cnn(Cc3cnc(N)o3)c(=O)c21 | < 300 | < 300 | 301 to 800 | ≤ 1000
Cn1cc(OC(F)(F)F)c(Cn2ncc3c4sc(Cc5cc[nH]n5)nc4n(C)c3c2=O)n1 | < 300 | < 300 | < 300 | ≤ 1000
Cn1c2nc(Cc3cc[nH]n3)sc2c2cnn(Cc3cnc(C(N)=O)o3)c(=O)c21 | 301 to 800 | 301 to 800 | 301 to 800 | > 1000
Cn1c2nc(Cc3cc[nH]n3)sc2c2cnn(Cc3c[nH]c(C(N)=O)n3)c(=O)c21 | < 300 | < 300 | < 300 | ≤ 1000
Cn1c2nc(Cc3cc[nH]n3)sc2c2cnn(Cc3ccn(N)n3)c(=O)c21 | < 300 | < 300 | < 300 | ≤ 1000
COCc1cn(C)nc1Cn1ncc2c3sc(Cc4cc[nH]n4)nc3n(C)c2c1=O | > 800 | > 800 | > 800 | > 1000

The next lines start with the values.

AC50 (wild type PKR [1]) [nM] | AC50 (PKR K410E) [nM] | AC50 (PKR R510Q) [nM] | AC50 (wild type PKR [2]) [nM] | SMILES
< 300 | < 300 | < 300 | ≤ 1000 | Cn1c2nc(Cc3cc[nH]n3)sc2c2cnn(Cc3ncsc3C#N)c(=O)c21
< 300 | < 300 | < 300 | ≤ 1000 | Cn1cc(Cl)c(Cn2ncc3c4sc(Cc5cc[nH]n5)nc4n(C)c3c2=O)n1
< 300 | < 300 | < 300 | ≤ 1000 | Cn1c2nc(Cc3ccccn3)sc2c2cnn(Cc3n[nH]cc3F)c(=O)c21
< 300 | < 300 | < 300 | ≤ 1000 | Cn1c2nc(Cc3ccccn3)sc2c2cnn(Cc3n[nH]cc3Cl)c(=O)c21
< 300 | < 300 | < 300 | ≤ 1000 | Cn1cc(N)c(Cn2ncc3c4sc(Cc5cc[nH]n5)nc4n(C)c3c2=O)n1
< 300 | < 300 | < 300 | ≤ 1000 | Cn1c2nc(Cc3cc[nH]n3)sc2c2cnn(Cc3n[nH]cc3C#N)c(=O)c21
< 300 | < 300 | < 300 | ≤ 1000 | Cn1c2nc(Cc3cc[nH]n3)sc2c2cnn(Cc3n[nH]cc3C(N)=O)c(=O)c21
< 300 | < 300 | < 300 | ≤ 1000 | Cn1c2nc(Cc3n[nH]cc3F)sc2c2cnn(Cc3cscn3)c(=O)c21
< 300 | < 300 | < 300 | ≤ 1000 | Cc1cn(C)nc1Cn1ncc2c3sc(Cc4cc[nH]n4)nc3n(C)c2c1=O
< 300 | < 300 | < 300 | ≤ 1000 | Cn1c2nc(Cc3cc[nH]n3)sc2c2cnn(Cc3cccc(C(N)=O)n3)c(=O)c21
< 300 | < 300 | < 300 | ≤ 1000 | Cn1c2nc(Cc3cc[nH]n3)sc2c2cnn(Cc3n[nH]cc3O)c(=O)c21
< 300 | < 300 | < 300 | ≤ 1000 | Cn1c2nc(Cc3n[nH]cc3F)sc2c2cnn(Cc3ncsc3Cl)c(=O)c21
< 300 | < 300 | < 300 | ≤ 1000 | Cn1c2nc(Cc3cc[nH]n3)sc2c2cnn(Cc3ncsc3F)c(=O)c21
< 300 | < 300 | < 300 | ≤ 1000 | Cn1c2nc(Cc3cc[nH]n3)sc2c2cnn(Cc3coc(Cl)n3)c(=O)c21
< 300 | < 300 | < 300 | ≤ 1000 | Cn1c2nc(Cc3cc[nH]n3)sc2c2cnn(Cc3csc(Cl)n3)c(=O)c21
< 300 | < 300 | < 300 | ≤ 1000 | Cn1c2nc(Cc3cc[nH]n3)sc2c2cnn(Cc3ncoc3Cl)c(=O)c21
